Patent publication US20120135959A1, “Metalloprotein inhibitors containing nitrogen based ligands” (priority 2006, published 2012)
Like-named read-outs stand apart in the source and are kept apart here.

Key:
[1] = target: T1, soybean lipoxygenase (sbLO) (Glycine max, UniProt P08170); assay: Lipoxygenase assay (absorbance at 234 nm, linoleic acid substrate); type: biochemical; conditions: 3 hours preincubation; for inhibition at 300 µM: reference compounds, read-out: inhibition of product formation relative to control (no inhibitor)
T1 construct: purchased Sigma-Aldrich
T1 sequence (P08170 1-839): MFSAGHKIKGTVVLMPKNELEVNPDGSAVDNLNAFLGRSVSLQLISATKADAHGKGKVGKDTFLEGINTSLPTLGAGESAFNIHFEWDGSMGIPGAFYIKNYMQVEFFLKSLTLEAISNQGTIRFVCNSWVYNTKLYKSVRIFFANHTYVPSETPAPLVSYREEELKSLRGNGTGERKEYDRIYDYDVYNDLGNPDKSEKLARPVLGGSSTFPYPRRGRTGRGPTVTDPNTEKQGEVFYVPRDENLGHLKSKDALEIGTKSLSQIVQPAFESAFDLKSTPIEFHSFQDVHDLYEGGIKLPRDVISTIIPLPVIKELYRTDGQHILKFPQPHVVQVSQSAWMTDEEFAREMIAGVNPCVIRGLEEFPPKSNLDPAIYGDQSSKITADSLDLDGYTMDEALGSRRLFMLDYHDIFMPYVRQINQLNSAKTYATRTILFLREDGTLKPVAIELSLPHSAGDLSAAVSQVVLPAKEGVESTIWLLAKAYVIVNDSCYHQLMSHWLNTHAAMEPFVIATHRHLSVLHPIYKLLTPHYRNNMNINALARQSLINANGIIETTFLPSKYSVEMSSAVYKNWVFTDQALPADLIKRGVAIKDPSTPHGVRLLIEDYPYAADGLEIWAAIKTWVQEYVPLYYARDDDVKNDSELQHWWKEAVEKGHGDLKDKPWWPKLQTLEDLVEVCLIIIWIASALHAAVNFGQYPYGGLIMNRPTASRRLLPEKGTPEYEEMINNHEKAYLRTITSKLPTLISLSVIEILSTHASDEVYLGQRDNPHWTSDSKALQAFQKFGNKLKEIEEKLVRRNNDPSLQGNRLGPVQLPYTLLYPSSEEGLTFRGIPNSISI

[2] = target: recombinant anthrax lethal factor (Bacillus anthracis, UniProt P15917); assay: biochemical; type: biochemical
MMP-1 [3] = target: T2, MMP-1 (Homo sapiens, UniProt P03956); assay: biochemical
T2 sequence (P03956 100-469): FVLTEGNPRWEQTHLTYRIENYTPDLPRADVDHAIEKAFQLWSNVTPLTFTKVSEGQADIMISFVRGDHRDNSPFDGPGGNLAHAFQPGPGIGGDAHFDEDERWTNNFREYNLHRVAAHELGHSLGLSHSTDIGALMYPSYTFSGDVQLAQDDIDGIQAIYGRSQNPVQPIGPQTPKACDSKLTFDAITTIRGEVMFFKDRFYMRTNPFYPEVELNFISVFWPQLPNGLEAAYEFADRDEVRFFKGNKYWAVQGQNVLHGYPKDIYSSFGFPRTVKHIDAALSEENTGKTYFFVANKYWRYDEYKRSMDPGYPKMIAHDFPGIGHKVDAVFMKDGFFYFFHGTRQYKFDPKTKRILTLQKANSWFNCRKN

MMP-3 = target: T3, MMP-3 (Homo sapiens, UniProt P08254); assay: biochemical; type: biochemical
T3 construct: purchased Biomol Research Laboratories

MMP-1 [4] = target: T2, MMP-1; conditions: for potency v. AHA: based on MMP-1 IC50; for IC50: read-out: MMP-1 IC50, fluorescence-based assay, pH 7.5, 1 h preincubation at 37° C., at least three independent experiments, spread in brackets

T3 sequence (P08254 100-477): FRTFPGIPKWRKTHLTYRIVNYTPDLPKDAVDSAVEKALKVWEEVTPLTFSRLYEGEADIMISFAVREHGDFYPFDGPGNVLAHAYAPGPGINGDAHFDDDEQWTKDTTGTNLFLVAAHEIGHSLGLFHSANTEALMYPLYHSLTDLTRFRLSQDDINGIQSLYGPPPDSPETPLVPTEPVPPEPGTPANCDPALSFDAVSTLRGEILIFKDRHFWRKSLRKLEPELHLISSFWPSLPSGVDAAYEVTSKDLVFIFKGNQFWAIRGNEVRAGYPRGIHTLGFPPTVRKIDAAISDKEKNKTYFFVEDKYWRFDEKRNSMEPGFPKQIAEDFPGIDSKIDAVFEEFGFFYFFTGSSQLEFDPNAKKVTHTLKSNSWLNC
Chain of recombinant anthrax lethal factor (P15917 34-809 limits assumed): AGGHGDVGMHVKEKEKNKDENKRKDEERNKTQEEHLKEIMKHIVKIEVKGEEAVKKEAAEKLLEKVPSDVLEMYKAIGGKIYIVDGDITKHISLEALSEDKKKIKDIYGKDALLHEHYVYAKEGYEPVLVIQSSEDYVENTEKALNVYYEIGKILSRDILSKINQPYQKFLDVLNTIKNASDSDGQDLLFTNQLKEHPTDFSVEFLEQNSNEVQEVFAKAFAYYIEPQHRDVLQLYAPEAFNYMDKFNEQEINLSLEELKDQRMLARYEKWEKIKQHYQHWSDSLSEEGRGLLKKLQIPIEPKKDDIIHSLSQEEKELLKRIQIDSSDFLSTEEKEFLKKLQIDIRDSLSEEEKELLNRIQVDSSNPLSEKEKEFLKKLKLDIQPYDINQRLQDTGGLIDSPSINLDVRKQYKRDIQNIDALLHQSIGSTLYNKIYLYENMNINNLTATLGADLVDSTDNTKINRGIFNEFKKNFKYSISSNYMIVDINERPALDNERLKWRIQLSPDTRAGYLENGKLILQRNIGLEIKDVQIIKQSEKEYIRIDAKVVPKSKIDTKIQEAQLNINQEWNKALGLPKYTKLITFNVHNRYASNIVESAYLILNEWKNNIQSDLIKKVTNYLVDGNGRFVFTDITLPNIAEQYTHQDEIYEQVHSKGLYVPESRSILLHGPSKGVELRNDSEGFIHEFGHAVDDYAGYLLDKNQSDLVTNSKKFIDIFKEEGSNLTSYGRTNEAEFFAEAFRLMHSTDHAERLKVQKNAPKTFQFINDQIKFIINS

## CC(=O)NO [AHA, acetohydroxamic acid, reference compound]
[1]
  inhibition at 300 µM: 99%
[2]; pH 7, read-out: LF IC50
  IC50: 11400 µM
MMP-1 [3]
  IC50: 41600 µM
MMP-3
  IC50: 25100 µM

## O=C(O)c1ccccn1 [ZBG 1, picolinic acid]
MMP-1 [4]
  potency v. AHA: 17-fold
[1]; ZBGs, method gives chelator final concentration 100 μM
  inhibition of lipoxygenase activity: 2.3%
[2]
  IC50: 3500 µM
MMP-1 [3]
  IC50: 2500 µM
MMP-3
  IC50: 181 µM
  potency v. AHA: 139-fold

## C1CNCCNCCN1 [ZBG 2]
MMP-1 [4]
  potency v. AHA: 7-fold
  IC50: 5690 µM
[2]; pH 7, read-out: LF IC50
  IC50: 1280 µM
MMP-3
  potency v. AHA: 19-fold
MMP-3; pH 6, read-out: MMP-3 IC50
  IC50: 1350 µM

## O=C(O)c1cccc(C(=O)O)n1 [ZBG 3, dipicolenic acid]
MMP-1 [4]
  potency v. AHA: 3-fold
  IC50: 13500 µM
[2]; pH 7, read-out: LF IC50
  IC50: 2690 µM
MMP-3
  potency v. AHA: 4-fold
MMP-3; pH 6, read-out: MMP-3 IC50
  IC50: 6100 µM

## C1CNCCNCCNCCN1 [ZBG 4, cyclen]
MMP-1 [4]
  potency v. AHA: 98-fold
  IC50: 430 µM
[2]; pH 7, read-out: LF IC50
  IC50: 5700 µM
MMP-3
  potency v. AHA: 163-fold
MMP-3; pH 6, read-out: MMP-3 IC50
  IC50: 154 µM

## c1ccc(CNCc2ccccn2)nc1 [ZBG 5, di(2-picolyl)amine]
MMP-1 [4]
  IC50: 63 µM

## O=C(O)CNCC(=O)O [ZBG 6, aminodiacetic acid]
MMP-1 [4]
  potency v. AHA: 82-fold
  IC50: 510 µM
[2]; pH 7, read-out: LF IC50
  IC50: 930 µM
MMP-3
  potency v. AHA: 139-fold
MMP-3; pH 6, read-out: MMP-3 IC50
  IC50: 180 µM

## Cc1occc(=O)c1O [maltol]
[1]
  inhibition at 300 µM: 70%

## di(2-picolyl)amine [ZBG 5]
MMP-1 [4]
  potency v. AHA: 660-fold
[2]; pH 7, read-out: LF IC50
  IC50: 370 µM
MMP-3
  potency v. AHA: 185-fold
MMP-3; pH 6, read-out: MMP-3 IC50
  IC50: 136 µM
